Measurements from the NIST ThermoML archive (doi:10.1021/je0340755).

Assay: xn = mol fraction of the nth substance listed
Conditions: 101.3 kPa, Liquid; for viscosity: Capillary tube (Ostwald / Ubbelohde) method

CC(O)CCO (stereo not given) [1,3-butanediol] + O
Conditions | mass density, 298.15 K [kg/m3] | mass density, 308.15 K [kg/m3] | mass density, 318.15 K [kg/m3] | speed of sound, 298.15 K [m/s] | speed of sound, 308.15 K [m/s] | speed of sound, 318.15 K [m/s] | viscosity, 298.15 K [mPa·s] | viscosity, 308.15 K [mPa·s] | viscosity, 318.15 K [mPa·s]
x2 = 0.045 | 1001 | 995.14 | 989.57 | 1544.1 | 1500.6 | 1474.8 | 92.65 | 49.94 | 28.95
x2 = 0.1445 | 1003.36 | 997.4 | 991.66 | 1569.1 | 1520.3 | 1492.5 | 81.12 | 43.43 | 25.16
x2 = 0.2499 | 1006.05 | 999.97 | 994.06 | 1594.2 | 1538.6 | 1509.5 | 67.64 | 36.09 | 20.85
x2 = 0.3526 | 1008.62 | 1002.45 | 996.38 | 1613.2 | 1561.8 | 1531.8 | 54.19 | 29.07 | 16.64
x2 = 0.4519 | 1011.07 | 1004.84 | 998.64 | 1631.1 | 1585.2 | 1554.7 | 41.72 | 22.69 | 12.79
x2 = 0.5035 | 1012.39 | 1006.14 | 999.86 | 1643.5 | 1597 | – | 35.66 | 19.58 | 10.94
x2 = 0.5563 | 1013.79 | 1007.52 | – | 1652.1 | 1609.3 | – | 29.86 | 16.57 | 9.164
x2 = 0.6507 | 1016.24 | 1009.99 | – | 1682 | 1634.5 | – | 20.66 | 11.66 | 6.346
x2 = 0.7518 | 1017.77 | 1011.69 | – | 1702 | 1666.3 | – | 12.64 | 7.207 | 3.879
x2 = 0.8477 | 1015.59 | 1010.07 | – | 1681.6 | 1684 | – | 6.82 | 3.905 | 2.11
x2 = 0.9081 | 1010.74 | 1005.92 | – | 1673.4 | 1665.1 | – | 4.008 | 2.337 | 1.304
x2 = 0.9152 | 1009.95 | 1005.23 | – | 1660.2 | 1659.9 | – | 3.719 | 2.179 | 1.226
x2 = 0.9253 | 1008.73 | 1004.18 | – | 1645 | 1657.3 | – | 3.322 | 1.965 | 1.122
x2 = 0.9355 | 1007.4 | 1003.02 | – | 1615.2 | 1640.7 | – | 2.937 | 1.759 | 1.024
x2 = 0.9521 | 1005.03 | 1000.96 | – | 1610.8 | 1619.1 | – | 2.348 | 1.45 | 0.881
x2 = 0.9543 | 1004.7 | 1000.67 | – | 1599.6 | 1615.8 | – | 2.273 | 1.411 | 0.864
x2 = 0.9597 | 1003.86 | 999.94 | – | 1576.9 | 1607.2 | – | 2.093 | 1.318 | 0.824
x2 = 0.9699 | 1002.22 | 998.52 | – | 1551.3 | 1589 | – | 1.765 | 1.15 | 0.753
x2 = 0.9804 | 1000.46 | 996.99 | – | 1525.7 | 1567.4 | – | 1.444 | 0.99 | 0.69
x2 = 0.9901 | 998.79 | 995.53 | – | 1519.4 | 1544.6 | – | 1.163 | 0.851 | 0.639
x2 = 0.9924 | 998.38 | 995.19 | – | 1510.8 | 1536.8 | – | 1.098 | 0.819 | 0.628
x2 = 0.9955 | 997.84 | 994.71 | – | 1527.6 | 1530.7 | – | 1.012 | 0.778 | 0.615
